Values joined by “and” are separate entries in the source; they are usually repeats but may differ in a detail not shown here. Identical values can stand only once.
Columns and labels:
[1] = In vitro transscleral transport of budesonide/budesonide pro-drugs; type: in vitro ADME, bovine; settings: sclera to RPE direction (A to B); 6 h; 37° C.
From the text: Freshly excised bovine eyes were used in all studies. […] Equatorial region of the remaining sclera-choroid-[…]) was used as is for SCRPE transport studies. […] Isotonic assay buffer (pH 7.4) with the following composition was used during the entire tissue isolation procedure and transport study: […] Two hundred microliters of sample was collected from the receiver side at specific time intervals and replenished with fresh buffer. The drug/pro-drug content in the receiver and donor samples was analyzed using an LC-MS/MS method.

[2] = system: ARPE19 cells; settings: at nanomolar concentrations, glucocorticoid-receptor mediated; cited from earlier work
[3] = Aqueous solubility (Solaq) listed in physicochemical property tables; settings: pH 7.4, 25° C.
[4] = system: blood retinal barrier leakage; settings: diabetic rats; eye drops twice daily for 60 days; C-SA 0.2% w/v, C-SA-T 1.0% w/v
Method: After overnight fasting for 12-16 h, an intraperitoneal injection of 30 mg/ml solution of streptozotocin in 10 mM citrate buffer (pH 4.5) was administered (60 mg/kg body weight) to induce diabetes. After 3-4 h of streptozotocin injection, animals were put on regular diet and 24 h after streptozotocin injection, blood sample (5-10 μl) was collected via tail vein. The blood glucose levels in the animals were determined with a glucose monitor (One Touch; Life Scan Inc., Milpitas, Calif.). Animals with blood glucose levels greater than 250 mg/dL were considered diabetic. The animals were divided into four groups. […] Treatment was started immediately after diabetes induction. […]
Retinal FITC-Dextran Leakage: BN rats from each group were used for the assessment of FITC-dextran leakage. […] The relative FITC-dextran fluorescence units in 1 ml of supernatant were measured using a spectrofluorometer set at an excitation wavelength of 483 nm and an emission wavelength of 538 nm. Fluorescence of blank PBS was also
measured for subtraction from each sample reading. Final concentration of FITC-dextran was expressed as μg/g tissue. […] 20 μ (˜20 mg) of plasma was diluted to 1 ml (50 times dilution) with PBS for quantification under the linear range of the standard samples. […] The amount of FITC-dextran leakage in to the ocular tissues was calculated using the following equation, after correcting for dilutions.

[5] = system: retinal leukostasis; settings: diabetic rats; eye drops twice daily for 60 days; C-SA 0.2% w/v, C-SA-T 1.0% w/v
Method: After overnight fasting for 12-16 h, an intraperitoneal injection of 30 mg/ml solution of streptozotocin in 10 mM citrate buffer (pH 4.5) was administered (60 mg/kg body weight) to induce diabetes. After 3-4 h of streptozotocin injection, animals were put on regular diet and 24 h after streptozotocin injection, blood sample (5-10 μl) was collected via tail vein. The blood glucose levels in the animals were determined with a glucose monitor (One Touch; Life Scan Inc., Milpitas, Calif.). Animals with blood glucose levels greater than 250 mg/dL were considered diabetic. The animals were divided into four groups. […] Treatment was started immediately after diabetes induction. Both eyes were dosed twice daily for 60 days in group 2, 3 and 4 with their respective treatment. Animals in groups 2-4 were sacrificed at the end of 2 months. Normal animals in group 1 were sacrificed immediately after acclimatization in the animal facility. For each of the three assays, namely, FITC-Dextran leakage, vitreous-to-plasma protein ratio, and leukostasis, we used 4 animals from each of the four groups mentioned above.
BN rats from each group were used for the assessment of adherent leukocytes. At 1 hour after last dose on day 61, rats were sacrificed for ex-vivo retinal leukostasis assay. First, the animals were anesthetized with ketamine (80 mg/kg) and xylazine (12 mg/kg) administered intraperitoneally. […]

[6] = for binding/association constant (K, Ka) with melanin: 1 mg/ml melanin suspension in PBS (pH 7.4), 37° C., celecoxib 2 μg/ml, pro-drugs 250 μg/ml
[7] = In vitro transport across bovine conjunctiva
From the text: Freshly excised bovine eyes procured from a local slaughter house were used for all in vitro transport studies. Fatty or adherent tissue all around the eye is removed first. Cornea and conjunctiva were then removed. For isolation of sclera and choroid-RPE (CRPE), the anterior segment of the eye was removed with a circumferential cut below the limbus. The eye was cut into two halves along the geometric axis, a line joining the anterior pole (corneal center) and the posterior pole (center of the scleral curve), and the vitreous was removed. Neural retina was removed by exposing the eyecup to isotonic assay buffer at pH 7.4. Equatorial region of the remaining sclera-choroid-RPE (SCRPE) was used as is for SCRPE transport studies. All transport studies for celecoxib were performed in presence of 5% HP-β-CD. […] Drug solutions were prepared in the following manner: Celecoxib (100 μg/ml) in presence of 5% HP-β-CD was made after triturating celecoxib with HP-β-CD in a pestle-mortar followed by addition of assay buffer. The mixture was stirred for 24 h. Before use, the clear solution was filtered through 0.2 μ filter. […] Transport studies with all solutes were performed in A to B direction meaning outward to inward (eg. sclera towards choroid-RPE) movement of the solute was measured. […] Samples from all the transport studies were analyzed on LC-MS/MS.

[8] = In vitro transport across bovine cornea
From the text: (§1) Freshly excised bovine eyes procured from a local slaughter house were used for all in vitro transport studies. Fatty or adherent tissue all around the eye is removed first. Cornea and conjunctiva were then removed. For isolation of sclera and choroid-RPE (CRPE), the anterior segment of the eye was removed with a circumferential cut below the limbus. The eye was cut into two halves along the geometric axis, a line joining the anterior pole (corneal center) and the posterior pole (center of the scleral curve), and the vitreous was removed. Neural retina was removed by exposing the eyecup to isotonic assay buffer at pH 7.4. Equatorial region of the remaining sclera-choroid-RPE (SCRPE) was used as is for SCRPE transport studies. All transport studies for celecoxib were performed in presence of 5% HP-β-CD. […] Drug solutions were prepared in the following manner: Celecoxib (100 μg/ml) in presence of 5% HP-β-CD was made after triturating celecoxib with HP-β-CD in a pestle-mortar followed by addition of assay buffer. The mixture was stirred for 24 h. Before use, the clear solution was filtered through 0.2 μ filter. […] All transport experiments were performed for 6 h at 37° C. Samples were collected at regular time intervals from the receiver side with replacement with fresh assay buffer (pH 7.4). Transport studies with all solutes were performed in A to B direction meaning outward to inward (eg. sclera towards choroid-RPE) movement of the solute was measured. […] Samples from all the transport studies were analyzed on LC-MS/MS.

[9] = In vitro transport across bovine sclera-choroid-RPE (celecoxib series)
From the text: as §1

[10] = system: blood retinal barrier leakage; settings: diabetic rats; eye drops twice daily for 60 days; C-SA 0.2% w/v, C-SA-T 1.0% w/v; remark: listed apart in the source
Method: The animals were divided into four groups.
Plasma samples were stored at −80° C.

[11] = 10 μl eye drop, 2 mg/ml; 1 h
Method: At the end of 1 h, the animals were euthanized and the eyes were enucleated. Periocular tissue and plasma samples were collected.
Sample processing: Acetonitrile precipitation method was used for drug extraction from the tissues. Briefly, eyes from each eye drop study were dissected for tissue isolation. Tissues were homogenized in 250 μl water (pH 7.4 adjusted with 5 mM ammonium acetate) containing indoprofen as internal standard at a concentration of 500 ng/ml (1000 ng/ml stock was made). Similar volume of acetonitrile was added and mixed well by vortexing for 30 minutes. Samples were centrifuged at 15,000 rpm for 30 minutes. Supernatant was collected for LC-MS/MS analysis.
Total run time was 5.5 min.

[12] = In vivo delivery of bevacizumab in rats, ocular fluorophotometry after intravitreal injection; design: species or system rat; settings: day 15
Method: Rats were anesthetized by intraperitoneal injection of ketamine (35 mg/kg)/xylazine (5 mg/kg) and once the rats were under anesthesia, betadine solution was applied on the eye surface, and intravitreal injections were made using a 30-G needle. […] Baseline fluorescence values of eyes were monitored before injecting the formulations. At each time point, three fluorometric scans were taken and the mean value was used.

[13] = Ex vivo transscleral delivery after posterior subconjunctival injection in euthanized rats; design: species or system Brown Norway (BN) rats
Method: All animals were handled according to the ARVO statement for the use of Animals in Ophthalmic and Vision Research. […] Drug suspensions were shaken before each posterior subconjunctival injection. Rats were divided into two groups. […] Twenty-five microliters of budesonide suspension was injected using a 30 G needle in the posterior subconjunctival space of one eye of each animal and the other eye was not treated. At the end of 1 h, eyes were enucleated and immediately frozen in dry ice and isopentane bath. All samples were stored at −80 ° C. until LCMS/MS analysis. […] At the end of 1 h, the eyes were enucleated and frozen in a similar manner as above until analysis. Periocular tissue samples were also collected from both the groups at the end of the study. Different ocular tissues including sclera, choroid-RPE, retina, and vitreous were isolated and analyzed for drug levels.

[14] = Pharmacokinetic model of budesonide succinate transport; design: species or system bovine; settings: PK model, A to B in presence of inhibitor (FIG. 4A)
From the text: Circles on left side (5 BSA; 6 B) represent the donor chamber whereas circles on right side (7 BSA; 8 B) represent the receiver chamber for BSA transport in A to B direction. 6 B and 8 B were included and represent budesonide formed/transported during the course of transport study. A separate compartment was included to account for the pro-drug/parent drug loss due to tissue absorption. K5>0 represents rate constant for drug loss into the tissue, K5>6 and K7>8 represent rate constants for pro-drug conversion into parent drug on donor and receiver side respectively. […] K5>7 Act represent active transport rate constant and contribution (0.5%) of active diffusion in BSA transport.
The model was developed in such a way that it accounted for transport of pro-drug from the donor to the receiver side, transport of parent drug formed in the donor chamber to the receiver side over the period of transport study, loss of pro-drug/drug into the tissues and any backward transport from the receiver to the donor side. The transport rate constants for parent drug and pro-drug were calculated from the cumulative percentage transport values. Rate constant for conversion of pro-drug to the parent drug was calculated from the percentage of the pro-drug and parent drug formed. Model was run with the dose amounts observed in the donor and receiver sides after 6 h transport studies. […]

[15] = end of 6 h, 37° C., 100 μg/ml, celecoxib in 5% HP-β-CD
[16] = Group 2, 25 μl of 1 mg/ml suspension, posterior subconjunctival, 1 h

## CCCC1O[C@@H]2C[C@H]3[C@@H]4CCC5=CC(=O)C=C[C@]5(C)[C@H]4[C@@H](O)C[C@]3(C)[C@]2(C(=O)CO)O1 (stereo partly drawn) [Budesonide]
[1]
  cumulative percentage transport: 0.2%
[2]
  VEGF secretion and mRNA expression: capable of reducing
[3]; Table 1
  Solaq: Budesonide (0.02) mg/ml

## Cc1ccc(-c2cc(C(F)(F)F)nn2-c2ccc(S(=O)(=O)NC(=O)CCC(=O)O)cc2)cc1 [C-SA, Celecoxib succinamidic acid]
[4]
  retinal FITC-dextran leakage (mean± s.d.): 93.66 ± 37.08 µL/g/min
[5]
  Mean retinal leukocyte count: 95±12
[6]
  binding/association constant (K, Ka) with melanin: 8.89×10^3 M^−1 and 8.89 E3 M^−1

## Cc1ccc(-c2cc(C(F)(F)F)nn2-c2ccc(S(=O)(=O)NC(=O)CCC(=O)NCCS(=O)(=O)O)cc2)cc1 [C-SA-T, celecoxib succinamidic acid taurine]
[4]
  retinal FITC-dextran leakage (mean± s.d.): 23.64 ± 4.20 µL/g/min
[5]
  Mean retinal leukocyte count: 47±10
[7]
  Transport across bovine conjunctiva, times higher than celecoxib: ~4 times
[8]
  Transport across bovine cornea, times higher than celecoxib: ~25 times
  reduction in transport across cornea with taurine as an inhibitor: > 50%
[9]
  Transport across bovine sclera-choroid-RPE, times higher than celecoxib: ~20 times
  reduction in transport across SCRPE with taurine as an inhibitor: > 50%
[10]
  average vitreous-to-plasma protein ratio: 0.28±0.06
[6]
  binding/association constant (K, Ka) with melanin: 7.39×10^3 M^−1 and 7.93 E3 M^−1
[6]; ITC
  melanin binding, fold lower than that of celecoxib: ~130 fold

## Cc1ccc(-c2cc(C(F)(F)F)nn2-c2ccc(S(N)(=O)=O)cc2)cc1 [Celecoxib, reference compound]
[7]; [15]
  Transport across bovine conjunctiva: 3.9%
[8]; [15]
  Cumulative percent transport across bovine cornea: 0.017%
[9]; [15]
  Transport across bovine sclera-choroid-RPE: approximately 0.1%
[11]
  level in cornea, celecoxib compared with CSA: higher than CSA
  level in iris and CRPE, celecoxib compared with C-SA: higher
  level in periocular space, celecoxib compared with CSA: lower than that of CSA
[6]
  binding/association constant (K, Ka) with melanin: 1.01×10^6 M^−1 and 1.01 E6 M^−1
[3]; Table 2
  Solaq: Celecoxib (0.005) mg/ml

## CN(C)C[C@@H]1CCn2cc(c3ccccc32)C2=C(C(=O)NC2=O)c2cn(c3ccccc23)CCO1 [Ruboxistaurin]
[3]; Table 4
  Solaq: Ruboxistaurin (0.029) mg/ml

## Alexa-bevacizumab solution: Alexa Fluor 488 conjugated bevacizumab injected as solution (control)
[12]
  Alexa-bevacizumab concentration in the vitreous: 2.2 µg/mL

## Succinic acid mono-budesonide ester [budesonide succinate]
[13]; [16]
  ex vivo drug level (pro-drug) in CRPE: 0.6 μg/g tissue
  ex vivo drug level (pro-drug) in retina: 0.2 μg/g tissue
  ex vivo drug level (pro-drug) in sclera: 1.9 μg/g tissue
  ex vivo drug level (pro-drug) in vitreous: 0.05 μg/g tissue
  ex vivo level of budesonide released from budesonide succinate in CRPE: 7.2 μg/g tissue
  ex vivo level of budesonide released from budesonide succinate in retina: 2.2 μg/g tissue
  ex vivo level of budesonide released from budesonide succinate in sclera: 11.0 μg/g tissue
  ex vivo level of budesonide released from budesonide succinate in vitreous: 0.5 μg/g tissue
[13]; rat
  budesonide delivery in sclera, choroid-RPE and retina, higher with prodrug compared to plain drug budesonide: 2-5 folds
[14]
  contribution of active diffusion in BSA transport: 0.5%

Source: US20170151266A1, “METHODS AND COMPOSITIONS FOR ENHANCED DRUG DELIVERY TO THE EYE AND EXTENDED DELIVERY FORMULATIONS” (THE REGENTS OF THE UNIVERSITY OF COLORADO, A BODY, priority 2011, published 2017)
